Laboratory results as given in patent US20220389112A1, “TREATMENT OF MULTIPLE MYELOMA” (priority 2019, published 2022).

Columns and labels:
Format in all cases: cell-based
JJN3 MM cells = experiment: CD38 expression by flow cytometry on JJN3; details: treated 72 hours prior to expression measurement
Experimental: (§1) Both types of primary NK cell were cultured with the same amount of IL-2 ([…] as is standard for primary NK cell work. MM1S, H929 and JJN3 were treated with either SIA or Neura as described above and stained with an anti-CD38 antibody (BD Pharmingen-564498) for 30 mins on ice prior to being screened for expression using flow cytometry.
JJN3 MM cells were treated with 300 μM SIA and 10 nM ATRA (all-trans retinoic acid), or 300 μM SIA, 10 nM ATRA and DMSO individually for 72 hrs@37° C. After 72 hours, the cells were collected, washed with normal culture media once and then treated with Daratumumab at a concentration of 10 μg/ml for 30 mins at room temperature.
Some cells from all treatment conditions were not treated with Daratumumab and were instead screened for CD38 expression using an anti-CD38 antibody.

MM cell line MM1S = experiment: CD38 expression by flow cytometry on MM1S; details: anti-CD38 staining, vs non-treated controls
Experimental: (§2) Desialylation: Target cells were cultured with 300 μM 3Fax-Peracetyl Neu5Ac (SIA, sialyltransferase inhibitor) for 72 hrs prior to use or treated with Neuraminidase (Neura, sialidase) for 45 mins@37° C. prior to use.
as §1

MM cell line H929 = experiment: CD38 expression by flow cytometry on H929; details: anti-CD38 staining, vs non-treated controls
Experimental: as §2, §1

[1] = test system: H929 target myeloma cell line; experiment: NK cell mediated cytotoxicity co-culture against H929; details: expanded primary NK cells, co-cultures 4 hrs
Experimental: Co-cultures were carried out with either expanded (Miltenyi method) primary NK cells or IL-2 activated primary NK cells, both originally isolated from peripheral blood supplied by healthy donors and H929 and JJN3 target myeloma cell lines.
Propidium Iodide was used in flow cytometry to identify dead cells. MM cells were separated from NK cells by staining NK cells with CFSE cell tracking dye prior to initiating the co-culture.
% specific lysis (reported in all our figures) was calculated using the following formula:
Total cell death−basal cell death/100−basal cell death×100=%
Cell death here applies to target cells (e.g. JJN3 and H929)
After 30 mins treatment with Daratumumab, cells were co-cultured with primary expanded NK cells (Miltenyi method) for 4 hours at either 0.5:1 or 1:1 E:T (Effector:Target) ratios.

| Compound | CD38 expression (JJN3 MM cells) | CD38 expression (MFI) (MM cell line MM1S) | CD38 expression (MFI) (MM cell line H929) | expanded primary NK cell-mediated cytotoxicity (% specific lysis) [1] |
| --- | --- | --- | --- | --- |
| CC1=C(/C=C/C(C)=C/C=C/C(C)=C/C(=O)O)C(C)(C)CCC1 [ATRA, all-trans retinoic acid] | strongly up-regulates CD38 expression | – | – | – |
| COC(=O)C1(OC(C)=O)OC(C(OC(C)=O)C(COC(C)=O)OC(C)=O)C(NC(C)=O)C(OC(C)=O)C1F (stereo not shown) [SIA, 3Fax-Peracetyl Neu5Ac] | – | unmasks CD38 | unmasks CD38 | enhanced expanded primary NK cell-mediated cytotoxicity |
